Test results: ChEMBL document CHEMBL3217453, “Aminomethyl substituted thieno[2,3-d]pyrimidines as adenosine A2A receptor antagonists” (Medchemcomm, 2011)
Active and inactive are the calls of the source. The rule behind the calls is not given here.

Columns and labels:
[1] = target: Adenosine receptor A2a (Homo sapiens, UniProt P29274); assay: Antagonist activity at human adenosine A2A receptor expressed in CHO-K1 cells preincubated for 15 mins before NECA addition measured after 5.5 to 6 hrs by beta-galactosidase reporter gene assay; assay type: functional, cell-based
[2] = target: T1, Adenosine receptor A1 (Homo sapiens, UniProt P30542); assay: Antagonist activity at human adenosine A1 receptor expressed in CHO-K1 cells preincubated for 15 mins before r-PIA addition measured after 5.5 to 6 hrs by beta-galactosidase reporter gene assay; assay type: cell-based
T1 sequence (P30542 whole entry): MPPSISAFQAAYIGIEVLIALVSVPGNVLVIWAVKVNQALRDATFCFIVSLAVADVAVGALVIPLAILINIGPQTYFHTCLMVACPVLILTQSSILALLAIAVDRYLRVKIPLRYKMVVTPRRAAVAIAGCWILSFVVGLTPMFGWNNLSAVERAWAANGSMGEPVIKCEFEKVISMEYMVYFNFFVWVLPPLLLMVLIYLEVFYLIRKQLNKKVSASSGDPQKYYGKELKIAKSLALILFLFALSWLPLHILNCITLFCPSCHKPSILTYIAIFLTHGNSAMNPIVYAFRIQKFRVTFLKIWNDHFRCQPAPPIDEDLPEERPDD

[3] = tested on: Mus musculus; assay: Reversal of haloperidol-induced catalepsy in balb/c mouse at 10 mg/kg, po compound administered 30 mins post challenge; assay type: functional
[4] = tested on: Mus musculus; assay: Reversal of haloperidol-induced catalepsy in po dosed balb/c mouse compound administered 30 mins post challenge; assay type: functional; conditions: 0.5 h

Sequence of Adenosine receptor A2a (P29274 whole entry): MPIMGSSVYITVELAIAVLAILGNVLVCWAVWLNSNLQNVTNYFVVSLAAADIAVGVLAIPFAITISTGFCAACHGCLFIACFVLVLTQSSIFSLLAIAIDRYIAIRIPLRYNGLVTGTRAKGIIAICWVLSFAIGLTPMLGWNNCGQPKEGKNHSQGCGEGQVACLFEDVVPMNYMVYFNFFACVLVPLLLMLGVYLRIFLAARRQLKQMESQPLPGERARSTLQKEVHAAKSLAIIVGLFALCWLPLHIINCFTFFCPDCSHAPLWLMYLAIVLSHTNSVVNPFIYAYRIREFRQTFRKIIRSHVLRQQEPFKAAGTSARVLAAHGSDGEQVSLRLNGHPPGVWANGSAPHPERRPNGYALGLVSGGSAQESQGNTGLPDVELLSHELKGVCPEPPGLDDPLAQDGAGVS

Row | Ki [1] | Ki [2] | SMILES | Activity [3] | ED50 [4]
1 | 39 nM | 840 nM | N#Cc1cccc(-c2nc(N)c3cc(CN4CCCC(F)(F)C4)sc3n2)c1 | – | < 1 mg/kg
2 | 995 nM | > 5000 nM | Nc1nc(-c2ccccc2)nc2sc(CN3CCOCC3)cc12 | – | –
3 | – | > 930 nM | Cc1csc(-c2nc(N)c3cc(CN4CCOCC4)sc3n2)n1 | – | –
4 | 29 nM | 1680 nM | Nc1nc(-c2ccco2)nc2sc(CN3CCOCC3)cc12 | – | 1.3 mg/kg
5 | 3760 nM | > 10000 nM | Nc1nc(-c2cccc([N+](=O)[O-])c2)nc2sc(CN3CCC(F)CC3)cc12 | – | –
6 | > 1360 nM | > 600 nM | CC(C)c1ccc(-c2nc(N)c3cc(CN4CCOCC4)sc3n2)o1 | – | –
7 | 54.4 nM | – | N#Cc1cccc(-c2nc(N)c3cc(CN4CCC(F)CC4)sc3n2)c1 | – | < 1 mg/kg
8 | – | > 1100 nM | Nc1nc(-c2ccc(C3CC3)o2)nc2sc(CN3CCOCC3)cc12 | – | –
9 | 110 nM | > 10000 nM | Nc1nc(-c2cccs2)nc2sc(CN3CCCC3)cc12 | – | –
10 | 50.9 nM | 980 nM | N#Cc1cccc(-c2nc(N)c3cc(CN4CCSCC4)sc3n2)c1 | – | –
11 | > 10000 nM | – | N#Cc1cccc(-c2nc(N)c3cc(CN4CCCC4)sc3n2)c1 | – | –
12 | 110 nM | – | Nc1nc(-c2cccc(F)c2)nc2sc(CN3CCOCC3)cc12 | – | –
13 | 9.2 nM | 369 nM | Nc1nc(-c2ccco2)nc2sc(CN3CCSCC3)cc12 | – | 3.2 mg/kg
14 | 36.7 nM | – | Nc1nc(-c2ccc(Cl)o2)nc2sc(CN3CCC(F)CC3)cc12 | – | –
15 | > 10000 nM | 3030 nM | Nc1nc(-c2cccc(C(F)(F)F)c2)nc2sc(CN3CCC(F)CC3)cc12 | – | –
16 | 22.5 nM | 710 nM | Nc1nc(-c2ccc(Br)o2)nc2sc(CN3CCCC3)cc12 | inactive | –
17 | 19.7 nM | – | Nc1nc(-c2ccco2)nc2sc(CN3CCC(F)CC3)cc12 | – | < 1 mg/kg
18 | – | > 610 nM | CCc1ccc(-c2nc(N)c3cc(CN4CCOCC4)sc3n2)o1 | – | –
19 | > 10000 nM | > 10000 nM | CS(=O)(=O)c1cccc(-c2nc(N)c3cc(CN4CCC(F)CC4)sc3n2)c1 | – | –
20 | 125 nM | 1020 nM | Nc1nc(-c2cccs2)nc2sc(CN3CCOCC3)cc12 | – | –
21 | 11 nM | 190 nM | Nc1nc(-c2ccc(Cl)o2)nc2sc(CN3CC=CCC3)cc12 | – | –
22 | 30 nM | 725 nM | Nc1nc(-c2ccc(Br)o2)nc2sc(CN3CCOCC3)cc12 | – | –
23 | 120 nM | – | Nc1nc(-c2cccc(Cl)c2)nc2sc(CN3CCOCC3)cc12 | – | –
24 | 45.4 nM | 640 nM | Nc1nc(-c2ccc(Cl)o2)nc2sc(CN3CCOCC3)cc12 | – | –
25 | – | 2960 nM | Nc1nc(-c2cccc(C(F)(F)F)c2)nc2sc(CN3CC=CC3)cc12 | – | –
26 | 390 nM | – | N#Cc1ccc(-c2nc(N)c3cc(CN4CCC(F)CC4)sc3n2)cc1 | – | –
27 | 2250 nM | > 10000 nM | CN(C)C(=O)c1cccc(-c2nc(N)c3cc(CN4CCC(F)CC4)sc3n2)c1 | – | –
28 | 250 nM | – | Nc1nc(-c2nccs2)nc2sc(CN3CCOCC3)cc12 | – | –

The next lines start with the molecule.

Row | SMILES | Ki [1] | Ki [2] | Activity [3] | ED50 [4]
29 | CN(C)Cc1cc2c(N)nc(-c3ccco3)nc2s1 | 140 nM | – | – | –
30 | C[C@@H]1CCC[C@H](C)N1Cc1cc2c(N)nc(-c3ccc(Br)o3)nc2s1 | – | 40.2 nM | – | –
31 | Nc1nc(-c2ccc(C(F)F)o2)nc2sc(CN3CCOCC3)cc12 | – | – | inactive | –
32 | Nc1nc(-c2ccco2)nc2sc(CN3CC=CCC3)cc12 | 6.5 nM | 150 nM | – | < 3 mg/kg
33 | Nc1nc(-c2ccc(Cl)o2)nc2sc(CN3CCCC3)cc12 | – | – | inactive | –
34 | N#Cc1ccc(-c2nc(N)c3cc(CN4CC=CCC4)sc3n2)cc1 | 180 nM | – | – | –
35 | C[C@@H]1CCC[C@H](C)N1Cc1cc2c(N)nc(-c3ccc(C4CC4)o3)nc2s1 | 110 nM | – | – | –
36 | Nc1nc(-c2ccco2)nc2sc(CNC3CC3)cc12 | – | – | inactive | –
37 | Nc1nc(-c2ccc(Cl)o2)nc2sc(CN3CC=CC3)cc12 | 10 nM | – | inactive | –
38 | Nc1nc(-c2ccc(Cl)o2)nc2sc(CN3CCC(F)(F)C3)cc12 | 15.9 nM | 245 nM | – | –
39 | Cc1ccc(-c2nc(N)c3cc(CN4CCCCC4)sc3n2)o1 | 28.8 nM | – | inactive | –
40 | C[C@@H]1CCC[C@H](C)N1Cc1cc2c(N)nc(-c3ccc(C(F)F)o3)nc2s1 | 28.6 nM | – | inactive | –
41 | Nc1nc(-c2ccco2)nc2sc(CN3CCCC3)cc12 | – | – | inactive | –
42 | Nc1nc(-c2ccco2)nc2sc(CN3CCCCCC3)cc12 | 27.6 nM | 1170 nM | – | –
43 | Nc1nc(-c2ccco2)nc2sc(CN3CCC(F)C3)cc12 (stereo unspecified) | 10.3 nM | – | inactive | –
44 | Cc1ccc(-c2nc(N)c3cc(CN4CCCC4)sc3n2)o1 | – | – | inactive | –

Row | SMILES | Ki [1] | Ki [2] | Activity [3] | ED50 [4]
45 | Nc1nc(-c2ccco2)nc2sc(CNC3CCCCC3)cc12 | 170 nM | – | – | –
46 | Nc1nc(-c2ccccc2C(F)(F)F)nc2sc(CN3CCC(F)CC3)cc12 | > 10000 nM | > 10000 nM | – | –
47 | Nc1nc(-c2ccc(Cl)o2)nc2sc(CN3CCCC(F)(F)C3)cc12 | 9.1 nM | 188 nM | – | –
48 | CCc1ccc(-c2nc(N)c3cc(CN4[C@H](C)CCC[C@@H]4C)sc3n2)o1 | 25.2 nM | 190 nM | – | –
49 | Nc1nc(-c2ncco2)nc2sc(CN3CC=CC3)cc12 | 240 nM | 3890 nM | – | –
50 | Nc1nc(-c2ccco2)nc2sc(CN3CCC(F)(F)CC3)cc12 | 49.6 nM | – | – | –
51 | Nc1nc(-c2ncco2)nc2sc(CN3CC=CCC3)cc12 | 240 nM | 2960 nM | – | –
52 | N#Cc1cccc(-c2nc(N)c3cc(CN4CCOCC4)sc3n2)c1 | – | – | – | < 1 mg/kg
53 | Nc1nc(-c2ccco2)nc2sc(CN3CC=CC3)cc12 | 7.2 nM | 290 nM | – | < 0.1 mg/kg
54 | Nc1nc(-c2ccc(C(F)F)o2)nc2sc(CN3CCCC(F)(F)C3)cc12 | 43.2 nM | – | – | –
55 | Nc1nc(-c2ccc(C(F)(F)F)cc2)nc2sc(CN3CCC(F)CC3)cc12 | > 10000 nM | 3560 nM | – | –
56 | C[C@@H]1CCC[C@H](C)N1Cc1cc2c(N)nc(-c3ccco3)nc2s1 | 5.3 nM | – | – | –
57 | CC(C)c1ccc(-c2nc(N)c3cc(CN4[C@H](C)CCC[C@@H]4C)sc3n2)o1 | 17 nM | 140 nM | inactive | –
58 | Nc1nc(-c2ccco2)nc2sc(CN3CCCC(F)(F)C3)cc12 | – | 290 nM | – | < 1 mg/kg
59 | Nc1nc(-c2ccco2)nc2sc(CN3CCC(F)(F)C3)cc12 | 8.7 nM | – | – | 10 mg/kg
